Series [1] has as its system LPO. More on the design: method as in PMID 8068644. The note with it: cited from earlier work.
Series [2] concerns the target T1, Human peroxidasin (PXDN) (Homo sapiens, UniProt Q92626).
T1 construct: the four immunoglobulin domains and the peroxidase domain (amino acid residue 246-1314); made in house; host or cells: transient transfection
T1 sequence (Q92626 246-1314): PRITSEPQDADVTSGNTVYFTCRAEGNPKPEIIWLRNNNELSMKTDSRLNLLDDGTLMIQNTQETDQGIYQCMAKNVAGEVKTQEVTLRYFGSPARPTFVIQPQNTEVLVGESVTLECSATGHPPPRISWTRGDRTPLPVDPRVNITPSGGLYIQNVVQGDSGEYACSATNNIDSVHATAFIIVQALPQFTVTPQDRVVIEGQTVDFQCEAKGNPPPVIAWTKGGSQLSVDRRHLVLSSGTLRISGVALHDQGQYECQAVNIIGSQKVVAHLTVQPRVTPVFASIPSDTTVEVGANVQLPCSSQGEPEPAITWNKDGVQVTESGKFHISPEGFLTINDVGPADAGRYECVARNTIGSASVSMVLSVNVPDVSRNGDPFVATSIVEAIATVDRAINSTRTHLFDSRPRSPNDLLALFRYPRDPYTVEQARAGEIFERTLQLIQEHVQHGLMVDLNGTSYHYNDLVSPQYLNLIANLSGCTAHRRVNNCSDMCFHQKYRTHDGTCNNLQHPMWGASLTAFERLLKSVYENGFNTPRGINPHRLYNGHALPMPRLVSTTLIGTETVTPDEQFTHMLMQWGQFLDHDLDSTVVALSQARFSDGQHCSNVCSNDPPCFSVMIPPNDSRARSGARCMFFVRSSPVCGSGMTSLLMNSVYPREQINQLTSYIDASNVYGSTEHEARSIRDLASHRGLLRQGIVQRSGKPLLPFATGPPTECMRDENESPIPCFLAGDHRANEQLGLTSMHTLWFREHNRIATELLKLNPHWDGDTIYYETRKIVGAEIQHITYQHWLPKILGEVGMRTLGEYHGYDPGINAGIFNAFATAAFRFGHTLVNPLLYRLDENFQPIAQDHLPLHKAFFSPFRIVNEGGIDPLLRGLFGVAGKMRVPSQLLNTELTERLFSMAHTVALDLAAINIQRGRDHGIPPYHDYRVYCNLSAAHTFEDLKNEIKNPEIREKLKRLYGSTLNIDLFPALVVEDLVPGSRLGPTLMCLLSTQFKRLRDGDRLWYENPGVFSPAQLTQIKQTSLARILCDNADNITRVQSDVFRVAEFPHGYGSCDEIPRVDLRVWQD
The experiment in a line: Amplex oxidation activity assay in the presence of bromide. The series is classed as biochemical. The method, then:
(§1) A previously characterized truncated peroxidasin variant, formerly annotated as hsPxd01-con4 [46], consisting of the four immunoglobulin domains and the peroxidase domain (amino acid residue 246-1314; numbering refers to full length PXDN including the signal peptide as shown in Uniprot Q92626), was used for all experiments using PXDN protein. Cloning, transient transfection, expression and the quality control of the purified recombinant PXDN was performed routinely, as described previously. Molar concentrations are per heme and were determined using an extinction coefficient of 147,500 M^−1 cm^−1 for the heme Soret peak at 412 nm. For the conversion to mg, a molar mass of 140,000 g mol^−1 was used and calculated from the molar concentration per heme. For simplicity we will refer to this variant as peroxidasin (PXDN) throughout the manuscript.
(§2) 100 µL of 50 μM Amplex™ UltraRed and 20 μM hydrogen peroxide in 50 mM phosphate buffer pH 7.4 and the respective inhibitor at twice of its final concentration was added to a 96-well plate. […] The plate was incubated in the dark for 15 min at 37 °C before the fluorescence of resorufin, the resulting Amplex oxidation product, was detected using a SpectraMax iD3 fluorescent plate reader from Molecular Devices LLC, San Jose, CA 95134 (λex 544 nm, λem 590 nm, end point measurement). The same assay was also performed with 50 mM bromide present. To determine IC50 values, Amplex oxidation (measured as the end point as described above) was plotted versus the concentration of the inhibitor and expressed as % inhibition.

Series [3] has as its system PFHR9 cells. The series can be described thus: Tolerability / toxicity in cell culture. The series is classed as cell-based. Here is the method: PFHR9 cells (ATCC) were grown in Dulbecco’s Modified Eagle Medium (Gibco), supplemented with 10% heat-inactivated foetal bovine serum (Moregate) and 1% Penicillin Streptomycin (Gibco). As described previously, cells were seeded in 150 mm cell culture dishes and ECM was isolated. The concentration of the isolated ECM protein was measured (Direct Detect) and the yield was typically ~5 mg per dish. […] After 10 min, 100 μM bromide was added and the cross-link formation was started by adding 100 μM hydrogen peroxide. After 1 h at 37 °C, the reaction was stopped, by adding 1 mM sodium azide, and ECM was digested with 2 mg mL^−1 of collagenase type I (Worthington) for 48 h at 37 °C. […] Densitometric analyses of both dimer bands (Alliance Uvitec Cambridge imager) were used to determine the extent of inhibition of the cross-link formation. […] Once full confluence was reached, the medium was changed daily, and inhibitors were added at the indicated concentrations in 1 mL of medium for 7 days.

Series [4] has as its system collagen IV cross-link formation by PXDN. On the set-up: method as in PMID 22842973. The note with it: read-out: IC50 inhibition of collagen IV cross-linking, previously published value; cited from earlier work.
For series [5], the target named is T1, Human peroxidasin (PXDN). The experiment in a line: Dansylglycine halogenation (bromination) activity assay. It is filed as biochemical. As to conditions: 24 μM inhibitor, 50 nM PXDN, 50 μM DG, 100 mM bromide, 200 μM hydrogen peroxide, pH 7.4. Here is the method:
as §1
Dansylglycine (DG) was made up fresh every day and kept in the dark at room temperature. […] We mixed 50 nM PXDN in 100 mM phosphate buffer pH 7.4 with 50 μM DG and 100 mM bromide, before the reaction was started by adding 200 μM of hydrogen peroxide to a final volume of 1.5 mL. Loss of fluorescence was monitored for 60 s using a F-7000 Hitachi (Methrom-Inula, Vienna) fluorometer (λex 340 nm, λem 550 nm). […] The loss of fluorescence was fitted linearly to determine the rate of reaction (min^−1). The effect of the inhibitors was expressed as % inhibition, relative to the rate of the halogenation activity of PXDN without an inhibitor. IC50 values were determined by varying inhibitor concentrations (0–48 μM).

The target in series [6] is T1, Human peroxidasin (PXDN). The experiment in a line: Amplex oxidation activity assay in the absence of bromide. It is filed as biochemical. Here is the method: as §1, §2

On to `Oc1cc(O)cc(O)c1` [Phloroglucinol, 1,3,5-Trihydroxybenzene], for which the “inhibition of LPO” value in series [1] was “potently inhibits”. In addition, the IC50 was 948 nM in series [2], 500 nM in series [4] and 137 nM in series [6]. The inhibition at 20 µM in series [2] (20 μM inhibitor, 50 mM bromide) is greater than 95%; in series [6] (20 μM inhibitor, without bromide), greater than 95%. In addition, the “tolerability in cell culture” value in series [3] is “well tolerated in cell culture and does not impact cell proliferation”. Also, the inhibition at 24 µM in series [5] was 97 to 99%.

The record behind these values is publication PMC10812467, “Peroxidasin Inhibition by Phloroglucinol and Other Peroxidase Inhibitors” (Antioxidants, 2023).
